In PMC12606464, “Investigating NFE2L1 activators for targeted protein aggregate clearance: a follow-up study” (RSC Medicinal Chemistry, 2025):
Read-outs that look alike come from different tables or passages of the source.

Legend:
NFE2L1 pathway = assay: 3×PSMA4-ARE-LUC dual luciferase reporter assay in HEK293 cells; assay type: cell-based, human; conditions: for EC50 / fold induction at 5 µM: Homo sapiens; for EC50: HEK293; for fold induction at 5 µM: 16 h, HEK293, luminescence relative to DMSO-treated cells, read-out: NFE2L1 activation [5 μM]
Method in brief: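 HEK293 cells carrying the 3×PSMA4-ARE luciferase reporter (with pRL-TK) were treated with compounds for 16 h, then luciferase activity was measured. Values are fold change in luminescence over DMSO-treated cells; EC50 from four-parameter logistic or bell-shaped fits with 1/Y^2 weighting.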

[1] = test system: chymotrypsin-like activity of the 26S proteasome; assay: Proteasome activity assay in MCF7 cell lysates; assay type: cell-based; conditions: for Geometric mean, Treatment (Control = 1): MCF7, Figure S6
Procedure: Building on previous findings, we investigated how selected RUN compounds influence proteasomal function itself. Specifically, we examined the chymotrypsin-like activity of the 26S proteasome following a 16 hour treatment with 7.5 μM RUN compounds in the HEK293 cell line. […] In addition, two other cell lines, MCF7 and SH-SY5Y, were measured (see the SI, Fig. S6).
Figure S6: RUN compounds enhance chymotrypsin-like activity of the 26S proteasome in […]
Cells were treated with 5 µM RUN compounds for 16 hours, with DMSO (0.5%) as the vehicle control. Proteasome chymotrypsin-like activity was measured in cell lysates at 37 °C. Four independent experiments were conducted. Statistical analysis was performed using ratio paired t-tests corrected for multiple comparisons with the Holm-Šídák's method (α = 0.05). Detailed results of the analysis are shown in Supplementary Table S16. […]
2.7 Proteasome activity assay
The corresponding cell lines (HEK293, MCF7, or SH-SY5Y) were seeded into 6-well plates and allowed to adhere overnight under standard culture conditions. On the following day, HEK293 cells were treated with 7.5 µM RUN compounds, whereas MCF7 and SH-SY5Y cells were treated with 5 µM RUN compounds, for 16 hours each. After treatment, cells were harvested, resuspended in lysis buffer (50 mM HEPES, pH 7.5; 5 mM EDTA; 150 mM NaCl; 2 mM ATP; 1% Triton), and centrifuged at 15,000 rpm for 15 minutes at 4 °C. The resulting lysates (25 µg total protein) were incubated with 200 µM of the fluorogenic substrate Suc-Leu-Leu-Val-Tyr-AMC (Bachem, I1395) in assay buffer (50 mM Tris, pH 8.0; 10 mM MgCl₂; 1 mM ATP; 1 mM DTT) at 37 °C. Free AMC release was detected by measuring fluorescence at 360/460 nm. Results of RUN compounds were compared to the DMSO control using a ratio paired t-test corrected for multiple comparisons with the Holm-Šídák's method (α = 0.05) in GraphPad Prism (v 10.6.1).
2.8 XBP1-endoplasmic reticulum (ER) stress reporter assay […]
Two sets of comparisons: 1) […]
treatment with MG132 inhibitor or RUN compounds with DMSO control, 2) RUN compounds vs MG132, were done by two-way repeated-measures ANOVA with Geisser–Greenhouse correction, followed by Dunnett’s multiple comparisons test with individual variances in […]
HCT116 parental cells (WT) and two independent DDI2 knockout clones (KO 04 and KO 11), in which NFE2L1 activation is impaired, were transiently transfected with plasmids encoding either a non-aggregating EGFP-HttQ23 or an aggregation-prone EGFP-HttQ74 construct using Lipofectamine 2000 (Thermo Fisher Scientific) according to the manufacturer’s

[2] = PSMA4-ARE-luc2P reporter, four-parameter logistic or bell-shaped model, order of models not stated, read-out: EC50 (first value)
[3] = [Agonist] vs. Response, variable slope (four parameters), weighting 1/Y^2, Fig. S1
[4] = Bell-shaped fit, X is concentration, weighting 1/Y^2, Fig. S1
[5] = Bell-shaped fit, X is concentration, weighting 1/Y^2, Fig. S1, read-out: EC50_1 (best-fit)
[6] = PSMA4-ARE-luc2P reporter, four-parameter logistic or bell-shaped model, order of models not stated, read-out: EC50

| Structure (SMILES) | EC50 (NFE2L1 pathway; [2]) [µM] | fold induction at 5 µM (NFE2L1 pathway) | Bottom (best-fit) (NFE2L1 pathway; [3]) | Hillslope (best-fit) (NFE2L1 pathway; [3]) | Span (best-fit) (NFE2L1 pathway; [3]) | Top (best-fit) (NFE2L1 pathway; [3]) | logEC50 (best-fit) (NFE2L1 pathway; [3]) | Geometric mean, Treatment (Control = 1) [1] | Dip (best-fit) (NFE2L1 pathway; [4]) | Plateau1 (best-fit) (NFE2L1 pathway; [4]) | Plateau2 (best-fit) (NFE2L1 pathway; [4]) | nH1 (best-fit) (NFE2L1 pathway; [4]) | nH2 (best-fit) (NFE2L1 pathway; [4]) | EC50 (NFE2L1 pathway; [5]) [µM] | EC50 (NFE2L1 pathway; [6]) [µM] | Proteasome chymotrypsin-like activity in MCF-7 cells ([1]; 5 μM, 16 h) | EC50 (NFE2L1 pathway; [Agonist] vs. Response, variable slope (four parameters), weighting 1/Y^2, Fig. S1, read-out: EC50 (best-fit)) [µM] |
| --- | --- | --- | --- | --- | --- | --- | --- | --- | --- | --- | --- | --- | --- | --- | --- | --- | --- |
| COc1ccc(/C=C2\CC(N)C/C(=C\c3ccc(OC)c(OC)c3)C2=O)cc1OC (stereo not shown) [RUN-81] | 10.4 | 2.1 | 0.95 | 2.70 | 18.71 | 19.66 | 1.02 | 1.11 | – | – | – | – | – | – | – | – | – |
| COc1ccc(/C=C2\CC(NC(=O)C3CCCC3)C/C(=C\c3ccc(OC)c(OC)c3)C2=O)cc1OC (stereo not shown) [RUN-89] | 3.1 | 11.7 | 1.08 | 7.14 | 6.12 | 7.20 | 0.49 | 1.38 | 19.12 | 1.124 | 5.392 | -4.123 | -7.321 | 4.89 | 4.9 | greatest increase | – |
| COc1ccc(/C=C2\CC(NC(=O)c3ccccn3)C/C(=C\c3ccc(OC)c(OC)c3)C2=O)cc1OC (stereo not shown) [RUN-94] | 3.8 | 19.4 | 1.13 | 55.77 | 9.24 | 10.37 | 0.58 | 1.26 | 8.602 | -2.174 | 11.95 | Unstable | 18.05 | 3.8 | 3.8 | – | 3.79 |
